Assay results: patent US10709692B2, “Isoxazolidine derived inhibitors of receptor interacting protein kinase 1 (RIPK1)” (Denali Therapeutics Inc., priority 2015, dated 2020)

The compounds below were run against T1, receptor interacting protein kinase 1 (GST-hRIPK1 (8-327)) (Homo sapiens, UniProt Q13546) (assay: Fluorescent Polarization Binding (FP Binding) assay). Details: 10 nM GST-hRIPK1 (8-327), 5 nM fluorescent-labeled ligand, 30 min at RT.
T1 construct: GST-hRIPK1 (8-327) enzyme was generated by Proteros GmbH by Baculovirus expression system
T1 sequence (Q13546 8-327): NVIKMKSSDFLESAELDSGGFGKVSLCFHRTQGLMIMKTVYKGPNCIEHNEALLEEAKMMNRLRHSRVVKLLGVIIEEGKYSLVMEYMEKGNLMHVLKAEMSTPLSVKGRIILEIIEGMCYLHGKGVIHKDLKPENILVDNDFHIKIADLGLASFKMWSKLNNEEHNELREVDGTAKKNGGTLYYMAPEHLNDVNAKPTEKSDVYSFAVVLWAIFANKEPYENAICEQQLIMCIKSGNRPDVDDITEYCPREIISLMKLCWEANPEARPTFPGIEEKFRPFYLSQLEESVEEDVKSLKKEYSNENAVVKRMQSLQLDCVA
Experimental: Fluorescent Polarization Binding (FP Binding) assay (Berger S. B. et al. (2015) Cell Death Discovery, 1: 15009; Maki J. L. et al. (2012) Anal Biochem., 427(2): 164-174) was performed in polystyrene low volume 384-well black plate, at Room Temperature (RT) in a final volume of 10.1 μl/well using 10 nM of GST-hRIPK1 (8-327) enzyme and 5 nM of fluorescent-labeled ligand (14-(2-{[3-({2-{[4-(cyanomethyl)phenyl]amino}-6-[(5-cyclopropyl-1H-pyrazol-3-yl)amino]-4-pyrimidinyl}amino) propyl]amino}-2-oxoethyl)-16,16,18,18-tetramethyl-6,7,7a,8a,9,10,16,18-octahydrobenzo[2″3″]indolizino[8″, 0.7″:5′,6′]pyrano[3′,2′:3,4]pyrido[1,2-a]indol-5-ium-2-sulfonate.
Test compounds were serially diluted in DMSO at 100 fold final concentrations in the assay (1% DMSO final). In each well of a 384-well Plate were dispensed 0.1 μL of compound solution (or DMSO for controls) followed by 5 μL of GST-hRIPK1 (8-327) at twice the final concentrations in assay-buffer (50 mM HEPES pH 7.5, 10 mM NaCl, 50 mM MgCl2, 0.02% CHAPS, 0.5 mM DTT and 0.01% Pluronic F127). For negative control the enzyme addition was replaced by assay buffer only.
After addition of 5 μL of fluorescent-labeled ligand at twice the final concentrations in assay buffer, the plate was incubated at RT for 30 min. At the end, the binding was measured as FP value with the Envision (PerkinElmer) plate reader using filter for an excitation λ=531 nm FP and an emission λ=595 nm FP (S & P-pol).
Test compound inhibition was expressed as percent inhibition of internal assay controls. For concentration response curves, normalized data is fit and IC50 determined using XL-fit (IDBS) for Excel. IC50 were averaged to determine a mean value, for a minimum of two independent experiments.
Receptor interacting protein kinase 1 activity of exemplary compounds was determined according to the above general procedures.
Receptor interacting protein kinase 1 activity of certain compounds was determined according to the above general procedures.

| SMILES | IC50 [µM] |
| --- | --- |
| CC(C)(C)C(=O)N1OCC[C@@H]1c1cccc(F)c1 [Compound 82, (R)-1-(3-(3-fluorophenyl)isoxazolidin-2-yl)-2,2-dimethylpropan-1-one] | 1 to 10 |
| CC(C)(C)C(=O)N1OCC[C@H]1c1ccc(Cl)cn1 [Compound 89, 1-[(3S)-3-(5-chloropyridin-2-yl)-1,2-oxazolidin-2-yl]-2,2-dimethylpropan-1-one] | < 1 |
| CC1(C(=O)N2OCC[C@H]2c2ccc(F)cc2)CN(CC(F)F)C1 [Compound 90, (3S)-2-[1-(2,2-difluoroethyl)-3-methylazetidine-3-carbonyl]-3-(4-fluorophenyl)-1,2-oxazolidine] | < 1 |
| CC1(S(=O)(=O)N2OCC[C@H]2c2ccc(F)nc2)CC1 [Compound 93, 2-fluoro-5-[(3S)-2-[(1-methylcyclopropyl)sulfonyl]-1,2-oxazolidin-3-yl]pyridine] | 1 to 10 |
| CC(C)(CO)C(=O)N1OCC[C@H]1c1ccc(F)cc1 [Compound 96, 1-[(3S)-3-(4-fluorophenyl)-1,2-oxazolidin-2-yl]-3-hydroxy-2,2-dimethylpropan-1-one] | < 1 |
| Cc1cnc([C@@H]2CCON2C(=O)C(C)(C)CC#N)cn1 [Compound 104, 3,3-dimethyl-4-[(3S)-3-(5-methylpyrazin-2-yl)-1,2-oxazolidin-2-yl]-4-oxobutanenitrile] | < 1 |
| CC(C)(C)C(=O)N1OCC[C@H]1c1ccc(C(F)F)nc1 [Compound 105, 1-[(3S)-3-[6-(difluoromethyl)pyridin-3-yl]-1,2-oxazolidin-2-yl]-2,2-dimethylpropan-1-one] | < 1 |
| CC(C)(C)C(=O)N1OCC[C@H]1c1ccn2ccnc2c1 [Compound 110, 1-[(3S)-3-{imidazo[1,2-A]pyridin-7-yl}-1-oxazolidin-2-yl]-2,2-dimethylpropan-1-one] | < 1 |
| CC(C)(C)C(=O)N1OCC[C@H]1c1cn2ccccc2n1 [Compound 111, 1-(3S)-3-{imidazo[1,2-A]pyridin-2-yl}-1,2-oxazolidin-2-yl-2,2-dimethylpropan-1-one] | 1 to 10 |
| CC(C)(C)C(=O)N1OCC[C@H]1c1ccc(C(F)(F)F)nc1 [Compound 120] | < 1 |
| CC(C)(C)C(=O)N1OCC[C@H]1c1ncc(Cl)cc1F [Compound 121, 1-[(3S)-3-(5-chloro-3-fluoropyridin-2-yl)-1,2-oxazolidin-2-yl]-2,2-dimethylpropan-1-one] | < 1 |
| CC(C)(C)C(=O)N1OCC[C@H]1c1ccc(C(F)(F)F)cn1 [Compound 122, 2,2-dimethyl-(3S)-3-[5-(trifluoromethyl)pyridin-2-yl-1,2-oxazolidin-2-yl]propan-1-one] | < 1 |
| CC(C)(C)C(=O)N1OCC[C@H]1c1nc(C(F)(F)F)cs1 [Compound 123, 2,2-dimethyl-1-[(3S)-3-[4-(trifluoromethyl)-1,3-thiazol-2-yl]-1,2-oxazolidin-2-yl]propan-1-one] | 1 to 10 |
| CC(C)(C)C(=O)N1OCC[C@H]1c1cc2ccccn2n1 [Compound 124, 2,2-dimethyl-1-[(3S)-3-{pyrazolo[1,5-A]pyridin-2-yl}-1,2-oxazolidin-2-yl]propan-1-one] | < 1 |
| Cc1ncc([C@@H]2CCON2C(=O)C(C)(C)C)cn1 [Compound 125, 2,2-dimethyl-1-[(3S)-3-(2-methylpyrimidin-5-yl)-1,2-oxazolidin-2-yl]propan-1-one] | < 1 |
| Cc1ncc([C@@H]2CCON2C(=O)C(C)(C)C(F)F)cn1 [Compound 126, 3,3-difluoro-2,2-dimethyl-1-[(3S)-3-(2-methylpyrimidin-5-yl)-1,2-oxazolidin-2-yl]propan-1-one] | < 1 |
| CC(C)(C)C(=O)N1OCC[C@H]1c1ccc(F)cn1 [Compound 127, 1-[(3S)-3-(5-fluoropyridin-2-yl)-1,2-oxazolidin-2-yl]-2,2-dimethylpropan-1-one] | < 1 |
| CC(C)(C)C(=O)N1OCC[C@H]1c1ccc(C(F)F)cc1 [Compound 128, 1-[(3S)-3-[4-(difluoromethyl)phenyl]-1,2-oxazolidin-2-yl]-2,2-dimethylpropan-1-one] | < 1 |
| CC(C)(CC#N)C(=O)N1OCC[C@H]1c1ccc(C(F)F)nc1 [Compound 131, 4-(3S)-3-[6-(difluoromethyl)pyridin-3-yl]-1,2-oxazolidin-2-yl-3,3-dimethyl-4-oxobutanenitrile] | < 1 |

Second part, the compound after the results:

| IC50 [µM] | SMILES |
| --- | --- |
| < 1 | CC(C)(C)C(=O)N1OCC[C@H]1c1ccn2nccc2c1 [Compound 132, 2,2-dimethyl-1-[(3S)-3-{pyrazolo[1,5-a]pyridin-5-yl}-1,2-oxazolidin-2-yl]propan-1-one] |
| < 1 | CC(C)(C)C(=O)N1OCC[C@H]1c1cncc(F)c1 [Compound 133, 1-[(3S)-3-(5-fluoropyridin-3-yl)-1,2-oxazolidin-2-yl]-2,2-dimethylpropan-1-one] |
| < 1 | CC(C)(C)C(=O)N1OCC[C@@H]1c1ccc(F)cc1F [Compound 134, 1-[(3R)-3-(2,4-difluorophenyl)-1,2-oxazolidin-2-yl]-2,2-dimethylpropan-1-one] |
| < 1 | CC(C)(C)C(=O)N1OCC[C@H]1c1ccc(F)cc1F [Compound 135, 1-[(3S)-3-(2,4-difluorophenyl)-1,2-oxazolidin-2-yl]-2,2-dimethylpropan-1-one] |
| < 1 | Cc1cnc([C@@H]2CCON2C(=O)C(C)(C)C)cn1 [Compound 138, 2,2-dimethyl-1-[(3S)-3-(5-methylpyrazin-2-yl)-1,2-oxazolidin-2-yl]propan-1-one] |
| < 1 | CC(C)(COC(F)(F)F)C(=O)N1OCC[C@H]1c1cncc(F)c1 [Compound 139, 1-[(3S)-3-(5-fluoropyridin-3-yl)-1,2-oxazolidin-2-yl]-2,2-dimethyl-3-(trifluoromethoxy)propan-1-one] |
| < 1 | CC(C)(C)C(=O)N1OCC[C@H]1c1cccc2ccnn12 [Compound 140, 2,2-dimethyl-1-[(3S)-3-{pyrazolo[1,5-a]pyridin-7-yl}-1,2-oxazolidin-2-yl]propan-1-one] |
| < 1 | CC(C)(C)C(=O)N1OCC[C@H]1c1ccc(C#N)nc1 [Compound 143, 5-[(3S)-2-(2,2-dimethylpropanoyl)-1,2-oxazolidin-3-yl]pyridine-2-carbonitrile] |
| < 1 | COc1cc([C@@H]2CCON2C(=O)C(C)(C)C)ccn1 [Compound 144, 1-[(3S)-3-(2-methoxypyridin-4-yl)-1,2-oxazolidin-2-yl]-2,2-dimethylpropan-1-one] |
| < 1 | COc1ccc([C@@H]2CCON2C(=O)C(C)(C)C)cn1 [Compound 145, 1-[(3S)-3-(6-methoxypyridin-3-yl)-1,2-oxazolidin-2-yl]-2,2-dimethylpropan-1-one] |
| < 1 | CC(C)(C)C(=O)N1OCC[C@H]1c1ccccc1C#N [Compound 146, 2-[(3S)-2-(2,2-dimethylpropanoyl)-1,2-oxazolidin-3-yl]benzonitrile] |
| < 1 | CC(C)(C)C(=O)N1OCC[C@H]1c1cccc(C#N)c1 [Compound 147, 3-[(3S)-2-(2,2-dimethylpropanoyl)-1,2-oxazolidin-3-yl]benzonitrile] |
| < 1 | CC(C)(C)C(=O)N1OCC[C@H]1c1ccc(C2CC2)nc1 [Compound 148, 1-[(3S)-3-(6-cyclopropylpyridin-3-yl)-1,2-oxazolidin-2-yl]-2,2-dimethylpropan-1-one] |
| 1 to 10 | CC(C)(C)C(=O)N1OCC[C@H]1c1ccnc(N)c1 [Compound 149, 1-[(3S)-3-(2-aminopyridin-4-yl)-1,2-oxazolidin-2-yl]-2,2-dimethylpropan-1-one] |
| < 1 | CC(C)(C)C(=O)N1OCC[C@H]1c1cc(C#N)ccc1F [Compound 150, 3-[(3S)-2-(2,2-dimethylpropanoyl)-1,2-oxazolidin-3-yl]-4-fluorobenzonitrile] |
| < 1 | CC(C)(C)C(=O)N1OCC[C@H]1c1ccc(C#N)c(F)c1 [Compound 151, 4-[(3S)-2-(2,2-dimethylpropanoyl)-1,2-oxazolidin-3-yl]-2-fluorobenzonitrile] |
| < 1 | Cc1ccc([C@@H]2CCON2C(=O)C(C)(C)C)cn1 [Compound 152, 2,2-dimethyl-1-[(3S)-3-(6-methylpyridin-3-yl)-1,2-oxazolidin-2-yl]propan-1-one] |
